{"source": "paper PMC4657239", "about": "“BluB/CobT2 fusion enzyme activity reveals mechanisms responsible for production of active form of vitamin B12 by Propionibacterium freudenreichii” (Microbial Cell Factories, 2015)", "target": "T1, BluB/CobT2 (Propionibacterium freudenreichii, UniProt D7GJ95)", "T1 construct": "E. coli KRX, pFN18A; HaloTag removed by HaloTEV; N-terminal SDNA replaces initial Met", "T1 sequence (D7GJ95 entry or part of it)": "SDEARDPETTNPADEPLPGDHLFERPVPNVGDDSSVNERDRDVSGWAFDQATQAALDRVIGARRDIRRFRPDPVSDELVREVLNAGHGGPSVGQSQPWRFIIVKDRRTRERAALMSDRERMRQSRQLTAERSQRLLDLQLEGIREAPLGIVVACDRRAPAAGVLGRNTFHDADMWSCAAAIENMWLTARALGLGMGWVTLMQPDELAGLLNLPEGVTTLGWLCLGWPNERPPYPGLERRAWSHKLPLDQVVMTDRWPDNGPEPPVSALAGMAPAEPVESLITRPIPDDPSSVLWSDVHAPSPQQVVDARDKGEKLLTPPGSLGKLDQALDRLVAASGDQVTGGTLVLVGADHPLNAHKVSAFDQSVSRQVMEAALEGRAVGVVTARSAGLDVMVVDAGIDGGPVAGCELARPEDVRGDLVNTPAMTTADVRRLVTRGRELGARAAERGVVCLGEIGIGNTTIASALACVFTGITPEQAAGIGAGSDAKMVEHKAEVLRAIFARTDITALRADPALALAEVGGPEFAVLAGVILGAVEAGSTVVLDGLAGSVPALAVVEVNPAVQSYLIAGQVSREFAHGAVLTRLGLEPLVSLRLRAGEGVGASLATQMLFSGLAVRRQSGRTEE", "experiment": "LC-ESI-MS of alpha-ribazole phosphate formed", "format": "biochemical", "settings": "200 µM NaMN, 100 µM DMBI, 1 mM DTT, Tris-HCl pH 8.5, room temperature; CobT activity", "data": [{"smiles": "O=C([O-])c1ccc[n+]([C@@H]2O[C@H](COP(=O)(O)O)[C@@H](O)[C@H]2O)c1", "note": "[NaMN]", "values": [{"measurement": "LC-ESI-MS of alpha-ribazole phosphate formed", "value": "confirms that NaMN is the preferred substrate"}]}]}
